Consider seven compounds from patent US10968266B2, “GIP peptide analogues” (University of Copenhagen, priority 2014, dated 2021).

The target in data set [1] is T1, human GIP receptor (Homo sapiens, UniProt P48546).
T1 construct: host or cells: COS-7 cells, transient transfection (calcium phosphate precipitation), pCMV-Script vector
T1 sequence (P48546 22-466): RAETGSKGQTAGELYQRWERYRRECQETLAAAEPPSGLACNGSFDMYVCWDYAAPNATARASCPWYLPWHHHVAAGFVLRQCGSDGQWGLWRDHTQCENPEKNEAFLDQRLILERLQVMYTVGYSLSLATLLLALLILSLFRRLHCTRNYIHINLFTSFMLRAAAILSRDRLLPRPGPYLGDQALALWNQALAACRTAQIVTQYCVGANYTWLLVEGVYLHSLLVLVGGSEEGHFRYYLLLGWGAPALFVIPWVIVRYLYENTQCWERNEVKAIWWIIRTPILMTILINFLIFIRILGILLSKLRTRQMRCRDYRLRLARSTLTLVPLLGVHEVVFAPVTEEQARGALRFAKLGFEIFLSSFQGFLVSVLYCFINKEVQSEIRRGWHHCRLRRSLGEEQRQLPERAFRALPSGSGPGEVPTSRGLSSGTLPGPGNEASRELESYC
Put plainly: Competitive binding assay with 125I-labelled GIP radioligands, COS-7 cells transfected with human GIP receptor (Example 7). To be noted: for Competitive binding fold (fold change of GIP(1-30)NH2 affinity): radioligand 125I-GIP(1-42); for Competitive binding fold (fold change of GIP(1-30)NH2 affinity) / fold change GIP(1-30)NH2: relative to GIP(1-30)NH2. On the procedure:
Transfection of COS-7 cells was performed using the calcium phosphate precipitation method with chloroquine addition as previously described (Kissow et al., 2012). […] Nonspecific binding was determined as the binding of radioligand to untransfected cells. All determinations were made in duplicates, and all experiments repeated at least three times. The samples were analyzed for radioactivity using a Wallac Wizard 1470 Gamma Counter (GMI Inc., Minnesota, USA). The number “n” refers to individual experiments with separate transfections although from same cell line. IC50, EC50, and Kd/Ki values were determined by nonlinear regression. […] Statistical analyses (unpaired t-tests) of two parameters were also performed with GraphPad Prism 6.0. The calculations of Bmax and Ki values were based on the formula for one class of binding sites in homologous competition binding studies and the Cheng Prussoffs formula, respectively (DeBlasi et al., 1989). Kd is the dissociation constant determined by homologous receptor binding. […] Schild plots were performed with log (DR-1) (ordinate) and log(antagonist concentration) (abscissa) to estimate the slopes and Ki values (Lazareno and Birdsall, 1993).

Data set [2] concerns the target T1, human GIP receptor. The data set is described as follows: cAMP accumulation assay (agonism, antagonism, Schild analysis), COS-7 cells transfected with human GIP receptor (Example 7). It is filed as cell-based. To be noted: for Slope of Schild plot: GIP(1-42) dose-response curves with fixed antagonist concentrations. On the procedure:
COS-7 cells were grown in 10% CO2 and at 37° C. in Dulbecco's modified Eagle's medium 1885 supplemented with 10% fetal bovine serum, 2 mM glutamine, 180 units/ml penicillin, and 45 µg/ml streptomycin. Transfection of COS-7 cells was performed using the calcium phosphate precipitation method with chloroquine addition as previously described (Kissow et al., 2012).
Two days after transfection the cells were washed once with HEPES buffered saline (HBS) and incubated with HBS and 0.5 mM 3-isobutyl-1-methylxanthine (IBMX) for 30 minutes at 37° C. […] After ligand incubation, the HitHunter™ cAMP XS assay (an enzyme fragment complementation-based assay, DiscoveRx, Birmingham, United Kingdom) was carried out according to the manufacturer's instructions. All experiments were made in duplicates, and repeated at least three times. Luminescence was measured by Perkin Elmer™ EnVision 2104 Multilabled reader (Skovlunde, Danmark). In brief, the cells were lysed in the wells, the enzyme fragment-cAMP-antibody, an enzyme fragment and the enzyme substrates were added followed by 1 hour incubation at room temperature on shaker tray. The other enzyme fragment was added to the wells and incubated for 4 hours on shaker tray followed by measurements of luminescence. The ligand-induced cAMP competed with the binding of antibody to the first enzyme fragment and left the two fragments to fuse. The enzyme complex hydrolyzed the substrates and yielded luminescence. The number “n” refers to individual experiments with separate transfections although from same cell line.
IC50, EC50, and Kd/Ki values were determined by nonlinear regression. These, as well as maximal binding capacity (Bmax) values and Schild plot analysis were carried out with the GraphPad Prism 6.0 software (GraphPad, San Diego, Calif., USA) and Microsoft Excel™. Statistical analyses (unpaired t-tests) of two parameters were also performed with GraphPad Prism 6.0. The calculations of Bmax and Ki values were based on the formula for one class of binding sites in homologous competition binding studies and the Cheng Prussoffs formula, respectively (DeBlasi et al., 1989). Kd is the dissociation constant determined by homologous receptor binding. […] Schild plots were performed with log (DR-1) (ordinate) and log(antagonist concentration) (abscissa) to estimate the slopes and Ki values (Lazareno and Birdsall, 1993).
For orientation: cAMP levels reflect the balance of adenylyl cyclase and phosphodiesterase activity.

Setting [3] is: inhibition of GIP(1-42) at 50-80% of max receptor activation.

No end group written: not given here.

Usually IC50 stands for the concentration that gives 50% inhibition. A higher IC50 goes with a need for much substance. Consider `CC[C@H](C)[C@H](NC(=O)[C@H](CO)NC(=O)[C@H](Cc1ccc(O)cc1)NC(=O)[C@H](CC(=O)O)NC(=O)[C@@H](N)CO)C(=O)N[C@@H](C)C(=O)N[C@@H](CCSC)C(=O)N[C@@H](CC(=O)O)C(=O)N[C@@H](CCCCN)C(=O)N[C@H](C(=O)N[C@@H](Cc1c[nH]cn1)C(=O)N[C@@H](CCC(N)=O)C(=O)N[C@@H](CCC(N)=O)C(=O)N[C@@H](CC(=O)O)C(=O)N[C@@H](Cc1ccccc1)C(=O)N[C@H](C(=O)N[C@@H](CC(N)=O)C(=O)N[C@@H](Cc1c[nH]c2ccccc12)C(=O)N[C@@H](CC(C)C)C(=O)N[C@@H](CC(C)C)C(=O)N[C@@H](C)C(=O)N[C@@H](CCC(N)=O)C(=O)N[C@@H](CCCCN)C(N)=O)C(C)C)[C@@H](C)CC` [GIP(8-30)NH2], for which, at human GIP receptor [1], the “Competitive binding fold (fold change of GIP(1-30)NH2 affinity)” value amounted to 89 fold. The compound also displayed an IC50 against human GIP receptor [2] (setting [3]) of 133 nM.
Turning to `CC[C@H](C)[C@H](NC(=O)[C@H](CO)NC(=O)[C@H](Cc1ccc(O)cc1)NC(=O)[C@H](CC(=O)O)NC(=O)[C@H](CO)NC(=O)[C@@H](NC(=O)[C@H](Cc1ccccc1)NC(=O)[C@@H](NC(=O)CNC(=O)[C@H](CCC(=O)O)NC(=O)[C@H](C)N)[C@@H](C)O)[C@@H](C)CC)C(=O)N[C@@H](C)C(=O)N[C@@H](CCSC)C(=O)N[C@@H](CC(=O)O)C(=O)N[C@@H](CCCCN)C(=O)N[C@H](C(=O)N[C@@H](Cc1c[nH]cn1)C(=O)N[C@@H](CCC(N)=O)C(=O)N[C@@H](CCC(N)=O)C(=O)N[C@@H](CC(=O)O)C(=O)N[C@@H](Cc1ccccc1)C(=O)N[C@H](C(=O)N[C@@H](CC(N)=O)C(=O)N[C@@H](Cc1c[nH]c2ccccc12)C(=O)N[C@@H](CC(C)C)C(=O)N[C@@H](CC(C)C)C(=O)N[C@@H](C)C(=O)N[C@@H](CCC(N)=O)C(=O)N[C@@H](CCCCN)C(N)=O)C(C)C)[C@@H](C)CC` [GIP(2-30)NH2], the IC50 on human GIP receptor [1] (radioligand 125I-GIP(1-30)NH2) is 26 nM; at human GIP receptor [1] (radioligand 125I-GIP(2-30)NH2), 2.7 nM; on human GIP receptor [1] (radioligand 125I-GIP(3-30)NH2), 7.7 nM; at human GIP receptor [2] (setting [3]), 21.7 nM. Also, the “fold change GIP(1-30)NH2” value on human GIP receptor [1] (radioligand 125I-GIP(1-30)NH2) stood at 84.3 fold; on human GIP receptor [1] (radioligand 125I-GIP(2-30)NH2), 10.5 fold; at human GIP receptor [1] (radioligand 125I-GIP(3-30)NH2), 4.6 fold. Also, the “Competitive binding fold (fold change of GIP(1-30)NH2 affinity)” value on human GIP receptor [1] was determined as 16 fold. Further, the “Slope of Schild plot” value at human GIP receptor [2] came to 0.49±0.14. Also, the “Fold lower agonist potency than GIP(1-30)NH2” value at human GIP receptor [2] (agonist mode) is greater than 3000 fold. Besides, the “Intrinsic agonistic activity in cAMP accumulation” value (“Intrinsic agonistic activity” for short) on human GIP receptor [2] (agonist mode) is on record as “weak partial agonist”. Besides, the “log EC50, cAMP accumulation” value on human GIP receptor [2] (agonist mode, given with negative sign) is listed as −8.43±0.33.
Consider `CC[C@H](C)[C@H](N)C(=O)N[C@@H](CO)C(=O)N[C@@H](CC(=O)O)C(=O)N[C@@H](Cc1ccc(O)cc1)C(=O)N[C@@H](CO)C(=O)N[C@H](C(=O)N[C@@H](C)C(=O)N[C@@H](CCSC)C(=O)N[C@@H](CC(=O)O)C(=O)N[C@@H](CCCCN)C(=O)N[C@H](C(=O)N[C@@H](Cc1c[nH]cn1)C(=O)N[C@@H](CCC(N)=O)C(=O)N[C@@H](CCC(N)=O)C(=O)N[C@@H](CC(=O)O)C(=O)N[C@@H](Cc1ccccc1)C(=O)N[C@H](C(=O)N[C@@H](CC(N)=O)C(=O)N[C@@H](Cc1c[nH]c2ccccc12)C(=O)N[C@@H](CC(C)C)C(=O)N[C@@H](CC(C)C)C(=O)N[C@@H](C)C(=O)N[C@@H](CCC(N)=O)C(=O)N[C@@H](CCCCN)C(N)=O)C(C)C)[C@@H](C)CC)[C@@H](C)CC` [GIP(7-30)NH2, reference compound], for which the “Slope of Schild plot” value on human GIP receptor [2] amounted to 0.17±0.03. The IC50 against human GIP receptor [2] (setting [3]) was determined as 137 nM.
Regarding `CC[C@H](C)[C@H](NC(=O)[C@H](CO)NC(=O)[C@H](Cc1ccc(O)cc1)NC(=O)[C@H](CC(=O)O)NC(=O)[C@H](CO)NC(=O)[C@@H](NC(=O)[C@H](Cc1ccccc1)NC(=O)[C@@H](NC(=O)CNC(=O)[C@@H](N)CCC(=O)O)[C@@H](C)O)[C@@H](C)CC)C(=O)N[C@@H](C)C(=O)N[C@@H](CCSC)C(=O)N[C@@H](CC(=O)O)C(=O)N[C@@H](CCCCN)C(=O)N[C@H](C(=O)N[C@@H](Cc1c[nH]cn1)C(=O)N[C@@H](CCC(N)=O)C(=O)N[C@@H](CCC(N)=O)C(=O)N[C@@H](CC(=O)O)C(=O)N[C@@H](Cc1ccccc1)C(=O)N[C@H](C(=O)N[C@@H](CC(N)=O)C(=O)N[C@@H](Cc1c[nH]c2ccccc12)C(=O)N[C@@H](CC(C)C)C(=O)N[C@@H](CC(C)C)C(=O)N[C@@H](C)C(=O)N[C@@H](CCC(N)=O)C(=O)N[C@@H](CCCCN)C(N)=O)C(C)C)[C@@H](C)CC` [hGIP(3-30)], the “Fold shift in the dose-response curve of human GIP(1-42)” value at human GIP receptor [2] (1 μM antagonist) turned out to be 281 fold.
On to “porcine GIP(3-42): Porcine GIP(3-42), arginine in position 18 and serine in position 34; custom synthesized by PolyPeptide Laboratories (EGTFISDYSIAMDKIRQQDFVNWLLAQKGKKSDWKHNITQ) [reference compound]”, for which the “Antagonism of GIP(1-42)-induced cAMP response (in words)” value with human GIP receptor [2] is reported as “higher potency compared to human GIP (3-42), yet not as high as human GIP(3-30)NH2”. In addition, in the data set with human GIP receptor [2] (agonist mode), the “Intrinsic agonistic activity” value is on record as “neither of the GIP(3-42) variants had any intrinsic agonistic activity”.
As for `CC[C@H](C)[C@H](NC(=O)[C@H](CO)NC(=O)[C@H](Cc1ccc(O)cc1)NC(=O)[C@H](CC(=O)O)NC(=O)[C@H](CO)NC(=O)[C@@H](NC(=O)[C@H](Cc1ccccc1)NC(=O)[C@@H](NC(=O)CNC(=O)[C@H](CCC(=O)O)NC(=O)[C@H](C)NC(=O)[C@@H](N)Cc1ccc(O)cc1)[C@@H](C)O)[C@@H](C)CC)C(=O)N[C@@H](C)C(=O)N[C@@H](CCSC)C(=O)N[C@@H](CC(=O)O)C(=O)N[C@@H](CCCCN)C(=O)N[C@H](C(=O)N[C@@H](Cc1c[nH]cn1)C(=O)N[C@@H](CCC(N)=O)C(=O)N[C@@H](CCC(N)=O)C(=O)N[C@@H](CC(=O)O)C(=O)N[C@@H](Cc1ccccc1)C(=O)N[C@H](C(=O)N[C@@H](CC(N)=O)C(=O)N[C@@H](Cc1c[nH]c2ccccc12)C(=O)N[C@@H](CC(C)C)C(=O)N[C@@H](CC(C)C)C(=O)N[C@@H](C)C(=O)N[C@@H](CCC(N)=O)C(=O)N[C@@H](CCCCN)C(N)=O)C(C)C)[C@@H](C)CC` [GIP(1-30)NH2, reference compound], the “Intrinsic agonistic activity” value on human GIP receptor [2] (agonist mode) is “full agonist”.
For “DYSIAMDKIHQQDFVNWLLAQK-NH2 [GIP(9-30)NH2]”, the “cAMP accumulation logIC50 ± SEM (antagonism)” value on human GIP receptor [2] (inhibition of GIP(1-42) at 50-80% of max receptor activation, given with negative sign) is −6.35 ± 0.6. Further, at human GIP receptor [2] (inhibition of submaximal GIP(1-42) activation), the “Fold lower antagonistic potency (right-shift) compared to GIP(3-30)NH2” value turned out to be 38 fold.
